Measured values taken from patent publication US6127397A, “Optically active (R)-(E)-(4-substituted-phenyl-1,3-dithiolan-2-ylidene)-1-imidazolylaceto nitrile derivative, antifungal composition comprising the same, and method for producing the same” (Nihon Nohyaku Co., Ltd., priority 1996, dated 2000).
In brackets after ≈: the same amount, converted by molar mass. Like-named read-outs stand apart in the source and are kept apart here.

Tests used:
Assay in all cases: In vitro antifungal activity (MIC), SGA agar plate, 27° C., 7 days
[1] = system: Trichophyton rubrum IFO 6204; type: cell-based; details: for MIC: Trichophyton rubrum, IFO6204, 168 h, T. rubrum IFO 6204, read-out: MIC value against Trichophyton
Description: (§1) In vitro antifungal activity of compounds against dormatophytes
Trichophyton rubrunm IFO 6204
(§2) Preparation of inoculation fungal solution:
(§3) To a strain cultured on Sabouraud's glucose agar (SGA) slant medium at 27° C. for 1 to 2 weeks was added 0.1% (v/v) Tween 80-added sterilized physiological saline solution, followed by rubbing with a platinum spatula. The resulting suspension of conidia was filtered through a sterilized gauze to eliminate mycelium mass. Thereafter, the conidia was counted by an erythrocytometer (Thoma) The suspension of the conidia was diluted with 0.1% (v/v) Tween 80-added sterilized physiological saline solution so as to have a concentration of 1×10^6 conidia/ml to obtain an inoculation fungal solution.
(§4) Each compound was dissolved into dimethyl sulfoxide (DMSO) to prepare a diluent having a […]. The concentration of DMSO in a medium was adjusted to hair 1% (v/v).
(§5) Measurement of antifungal activity:
(§6) A SGA plate medium containing a given amount of a compound (20 ml/dish) was prepared. A loopful of the inoculation fungal solution was applied in the form of a line to each plate medium at a length of about 15 mm, and was allowed to stand for cultivation at 27° C. for 7 days. The minimum inhibitory concentration (MIC) of the compound at which a growth of a microorganism cannot be visually recognized was determined.

[2] = system: Trichophyton mentagrophytes TIMM 2789; type: cell-based; details: for MIC: Trichophyton mentagrophytes, TIMM2789, 168 h, T. mentagrophytes TIMM 2789, read-out: MIC value against Trichophyton
Description: as §1
Trichophyton mentagrophytes TIMM 2789
as §2, §3, §4, §5, §6

[3] = system: Trichophyton mentagrophytes IFO 5811; type: cell-based; details: for MIC: Trichophyton mentagrophytes, IFO5811, 168 h, T. mentagrophytes IFO 5811, read-out: MIC value against Trichophyton
Description: as §1
Trichophyton mentagrophytes IFO 5811
as §2, §3, §4, §5, §6

T. rubrum IFO 5805 = type: cell-based, Trichophyton rubrum; details: for MIC: Trichophyton rubrum, IFO5805, 168 h, read-out: MIC value against Trichophyton

Structure (SMILES)	MIC value against Trichophyton ([1]; T. rubrum IFO 6204)	MIC [1]	MIC value against Trichophyton ([2]; T. mentagrophytes TIMM 2789)	MIC [2]	MIC value against Trichophyton ([3]; T. mentagrophytes IFO 5811)	MIC [3]	MIC value against Trichophyton (T. rubrum IFO 5805)	MIC (T. rubrum IFO 5805)	MIC value against Trichophyton ([2]; T. mentagrophytes TIMM 2789, listed as 6')	MIC value against Trichophyton ([3]; T. mentagrophytes IFO 5811, listed as 12')	MIC value against Trichophyton ([3]; T. mentagrophytes IFO 5811, listed as 8')	MIC value against Trichophyton (T. rubrum IFO 5805; listed as 8')	MIC value against Trichophyton ([1]; T. rubrum IFO 6204, listed as 2')
Cc1ccccc1[C@@H]1CS/C(=C(/C#N)n2ccnc2)S1 [compound 6]	–	0.08 µg/mL (≈ 0.267 µM)	0.08 µg/mL (≈ 0.267 µM)	–	–	0.32 µg/mL (≈ 1.07 µM)	0.32 µg/mL (≈ 1.07 µM)	0.16 µg/mL (≈ 0.534 µM)	0.32 µg/mL (≈ 1.07 µM)	–	–	–	–
N#C/C(=C1/SC[C@@H](c2ccc(Br)cc2)S1)n1ccnc1 [compound 3]	> 0.08 µg/mL	0.08 µg/mL (≈ 0.22 µM)	–	> 0.08 µg/mL	–	> 0.08 µg/mL	–	> 0.08 µg/mL	–	–	–	–	–
N#C/C(=C1/SC[C@@H](c2ccc(Cl)cc2)S1)n1ccnc1 [compound 4]	> 0.08 µg/mL	0.08 µg/mL (≈ 0.25 µM)	–	> 0.08 µg/mL	–	> 0.08 µg/mL	–	> 0.08 µg/mL	–	–	–	–	–
N#C/C(=C1/SC[C@@H](c2ccccc2OC(F)F)S1)n1ccnc1 [compound 9]	0.64 µg/mL (≈ 1.82 µM)	0.32 µg/mL (≈ 0.911 µM)	1.28 µg/mL (≈ 3.64 µM)	0.64 µg/mL (≈ 1.82 µM)	2.56 µg/mL (≈ 7.29 µM)	1.28 µg/mL (≈ 3.64 µM)	0.64 µg/mL (≈ 1.82 µM)	0.32 µg/mL (≈ 0.911 µM)	–	–	–	–	–
N#C/C(=C1/SC[C@@H](c2cccc(Cl)c2)S1)n1ccnc1 [Compound No. 2]	0.16 µg/mL (≈ 0.5 µM)	–	> 0.64 µg/mL	0.32 µg/mL (≈ 1 µM)	> 0.64 µg/mL	0.64 µg/mL (≈ 2 µM)	> 0.64 µg/mL	0.64 µg/mL (≈ 2 µM)	–	–	–	–	0.64 µg/mL (≈ 2 µM)
N#C/C(=C1/SC[C@@H](c2ccc(F)cc2)S1)n1ccnc1 [Compound No. 1, (R)-(E)-[4-(4-fluorophenyl)-1,3-dithicolan-2-ylidene]-1-imidazolylacetonitrile]	0.32 µg/mL (≈ 1.05 µM)	0.16 µg/mL (≈ 0.527 µM)	0.64 µg/mL (≈ 2.11 µM)	0.32 µg/mL (≈ 1.05 µM)	> 0.64 µg/mL	0.64 µg/mL (≈ 2.11 µM)	0.64 µg/mL (≈ 2.11 µM)	0.32 µg/mL (≈ 1.05 µM)	–	–	–	–	–

Continued, values first:

MIC value against Trichophyton ([1]; T. rubrum IFO 6204)	MIC [1]	MIC value against Trichophyton ([2]; T. mentagrophytes TIMM 2789)	MIC [2]	MIC value against Trichophyton ([3]; T. mentagrophytes IFO 5811)	MIC [3]	MIC value against Trichophyton (T. rubrum IFO 5805)	MIC (T. rubrum IFO 5805)	MIC value against Trichophyton ([2]; T. mentagrophytes TIMM 2789, listed as 6')	MIC value against Trichophyton ([3]; T. mentagrophytes IFO 5811, listed as 12')	MIC value against Trichophyton ([3]; T. mentagrophytes IFO 5811, listed as 8')	MIC value against Trichophyton (T. rubrum IFO 5805; listed as 8')	MIC value against Trichophyton ([1]; T. rubrum IFO 6204, listed as 2')	Structure (SMILES)
0.08 µg/mL (≈ 0.226 µM)	0.04 µg/mL (≈ 0.113 µM)	0.32 µg/mL (≈ 0.906 µM)	0.16 µg/mL (≈ 0.453 µM)	0.64 µg/mL (≈ 1.81 µM)	0.32 µg/mL (≈ 0.906 µM)	0.08 µg/mL (≈ 0.226 µM)	0.04 µg/mL (≈ 0.113 µM)	–	–	–	–	–	N#C/C(=C1/SC[C@@H](c2ccccc2C(F)(F)F)S1)n1ccnc1 [compound 10]
0.04 µg/mL (≈ 0.118 µM)	0.02 µg/mL (≈ 0.0592 µM)	0.04 µg/mL (≈ 0.118 µM)	0.02 µg/mL (≈ 0.0592 µM)	0.04 µg/mL (≈ 0.118 µM)	–	0.04 µg/mL (≈ 0.118 µM)	0.02 µg/mL (≈ 0.0592 µM)	–	0.16 µg/mL (≈ 0.474 µM)	–	–	–	N#C/C(=C1/SC[C@@H](c2ccc(F)cc2Cl)S1)n1ccnc1 [compound 12]
–	0.01 µg/mL (≈ 0.033 µM)	0.04 µg/mL (≈ 0.132 µM)	0.02 µg/mL (≈ 0.0659 µM)	0.16 µg/mL (≈ 0.527 µM)	0.08 µg/mL (≈ 0.264 µM)	–	0.04 µg/mL (≈ 0.132 µM)	–	–	–	–	–	N#C/C(=C1/SC[C@@H](c2ccccc2F)S1)n1ccnc1 [compound 5]
0.02 µg/mL (≈ 0.0549 µM)	0.01 µg/mL (≈ 0.0275 µM)	0.04 µg/mL (≈ 0.11 µM)	0.02 µg/mL (≈ 0.0549 µM)	0.04 µg/mL (≈ 0.11 µM)	–	0.01 µg/mL (≈ 0.0275 µM)	–	–	–	0.16 µg/mL (≈ 0.439 µM)	0.04 µg/mL (≈ 0.11 µM)	–	N#C/C(=C1/SC[C@@H](c2ccccc2Br)S1)n1ccnc1 [compound 8]
0.02 µg/mL (≈ 0.0451 µM)	0.01 µg/mL (≈ 0.0226 µM)	–	0.02 µg/mL (≈ 0.0451 µM)	–	0.04 µg/mL (≈ 0.0903 µM)	0.04 µg/mL (≈ 0.0903 µM)	0.02 µg/mL (≈ 0.0451 µM)	–	–	–	–	–	N#C/C(=C1/SC[C@@H](c2ccc(Br)cc2Br)S1)n1ccnc1 [compound 11]
0.02 µg/mL (≈ 0.0502 µM)	0.01 µg/mL (≈ 0.0251 µM)	0.02 µg/mL (≈ 0.0502 µM)	0.01 µg/mL (≈ 0.0251 µM)	0.04 µg/mL (≈ 0.1 µM)	0.02 µg/mL (≈ 0.0502 µM)	0.02 µg/mL (≈ 0.0502 µM)	0.01 µg/mL (≈ 0.0251 µM)	–	–	–	–	–	N#C/C(=C1/SC[C@@H](c2ccc(Br)cc2Cl)S1)n1ccnc1 [compound 13, (R)-(E)-[4-(2-chloro-4-bromophenyl) -1,3-dithiolan-2-ylidene]-1-imidazolylacetonitrile]
0.04 µg/mL (≈ 0.124 µM)	0.02 µg/mL (≈ 0.0622 µM)	0.08 µg/mL (≈ 0.249 µM)	0.04 µg/mL (≈ 0.124 µM)	0.32 µg/mL (≈ 0.996 µM)	0.16 µg/mL (≈ 0.498 µM)	0.16 µg/mL (≈ 0.498 µM)	0.08 µg/mL (≈ 0.249 µM)	–	–	–	–	–	N#C/C(=C1/SC[C@@H](c2ccc(F)cc2F)S1)n1ccnc1 [compound 7]
